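The compound was tested at five concentrations on cells cultured in 96-well plates, with a 48-hour exposure period. At the GI50, growth is halved.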 Activity calls are given as the source filed them. Rule as the data show it: active = GI50 up to about 1.1 µM and inactive = higher.
Assays:
Assay in all cases: inhibition of tumour cell growth, NCI panel, 48 h
HOP-62 = test system: HOP-62
NCI-H460 = test system: NCI-H460
SNB-75 = test system: SNB-75
IGROV-1 = test system: IGROV-1
PC-3 = test system: PC-3
SF-539 = test system: SF-539
RXF 393 = test system: RXF 393
OVCAR-4 = test system: OVCAR-4
ACHN = test system: ACHN
UACC-257 = test system: UACC-257
M14 = test system: M14
BT-549 = test system: BT-549
786-0 = test system: 786-0
SF-268 = test system: SF-268
MCF7 = test system: MCF7
TK-10 = test system: TK-10
SW-620 = test system: SW-620
Malme-3M = test system: Malme-3M
MDA-N = test system: MDA-N
SK-MEL-28 = test system: SK-MEL-28

| SMILES | GI50 (HOP-62) | GI50 (NCI-H460) | GI50 (SNB-75) | GI50 (IGROV-1) | GI50 (PC-3) | GI50 (SF-539) | GI50 (RXF 393) | GI50 (OVCAR-4) | GI50 (ACHN) | GI50 (UACC-257) | GI50 (M14) | GI50 (BT-549) | GI50 (786-0) | GI50 (SF-268) | GI50 (MCF7) | GI50 (TK-10) | GI50 (SW-620) | GI50 (Malme-3M) | GI50 (MDA-N) | GI50 (SK-MEL-28) |
| --- | --- | --- | --- | --- | --- | --- | --- | --- | --- | --- | --- | --- | --- | --- | --- | --- | --- | --- | --- | --- |
| CC1OC(OC2C(OC(=O)[C@@H]3CC(C)(C)C[C@@H]4C5=CC[C@@H]6[C@@]7(C)C[C@H](O)[C@H](OC8OC(CO)C(O)C(O)C8O)[C@@](C)(CO)C7[C@H](O)C[C@@]6(C)[C@]5(C)C[C@@H](O)[C@H]43)OCC(O)C2O)C(O)C(O)C1O (some centres undefined) | > 15 µM (inactive) | > 15 µM (inactive) | > 15 µM (inactive) | > 15 µM (inactive) | > 15 µM (inactive) | > 15 µM (inactive) | 7.45 µM (inactive) | 12.9 µM (inactive) | > 15 µM (inactive) | > 15 µM (inactive) | > 15 µM (inactive) | > 15 µM (inactive) | > 15 µM (inactive) | > 15 µM (inactive) | > 15 µM (inactive) | > 15 µM (inactive) | > 15 µM (inactive) | – | – | – |
| COc1cc2c3c(c4cc(OC)c(OC)cc4c2cc1OC)[C@H](O)[C@@H]1CCCN1C3 | < 0.0198 µM (active) | < 0.0226 µM (active) | < 0.0312 µM (active) | < 0.0275 µM (active) | < 0.0303 µM (active) | < 0.0365 µM (active) | – | < 0.0234 µM (active) | < 0.0157 µM (active) | < 0.0383 µM (active) | < 0.0332 µM (active) | 0.144 µM (active) | < 0.0321 µM (active) | < 0.0408 µM (active) | < 0.0173 µM (active) | 0.0562 µM (active) | < 0.0269 µM (active) | < 0.0384 µM (active) | < 0.0363 µM (active) | < 0.0284 µM (active) |
| O=C(Cc1ccccc1)N/N=C/c1ccccc1O | – | 5.6 µM (inactive) | 12.5 µM (inactive) | 7.85 µM (inactive) | 82.6 µM (inactive) | 24.8 µM (inactive) | – | 15.7 µM (inactive) | 5.15 µM (inactive) | 9.57 µM (inactive) | 10.5 µM (inactive) | 27.9 µM (inactive) | 6.14 µM (inactive) | 8.57 µM (inactive) | 3.94 µM (inactive) | 22.4 µM (inactive) | 19.3 µM (inactive) | 12.6 µM (inactive) | 21.8 µM (inactive) | 40.4 µM (inactive) |
| NC(=O)c1nnsc1NN=O | > 100 µM (inactive) | > 100 µM (inactive) | 94.8 µM (inactive) | > 100 µM (inactive) | > 100 µM (inactive) | > 100 µM (inactive) | > 100 µM (inactive) | > 100 µM (inactive) | > 100 µM (inactive) | > 100 µM (inactive) | > 100 µM (inactive) | – | > 100 µM (inactive) | > 100 µM (inactive) | > 100 µM (inactive) | – | > 100 µM (inactive) | > 100 µM (inactive) | > 100 µM (inactive) | > 100 µM (inactive) |
| CC1(C)C(=O)N=C(N)N1C(=O)OCc1ccccc1 | > 100 µM (inactive) | > 100 µM (inactive) | > 100 µM (inactive) | > 100 µM (inactive) | > 100 µM (inactive) | > 100 µM (inactive) | – | > 100 µM (inactive) | > 100 µM (inactive) | > 100 µM (inactive) | > 100 µM (inactive) | > 100 µM (inactive) | > 100 µM (inactive) | > 100 µM (inactive) | > 100 µM (inactive) | > 100 µM (inactive) | > 100 µM (inactive) | > 100 µM (inactive) | > 100 µM (inactive) | > 100 µM (inactive) |
| O=C1c2ccc3ccccc3c2CCC1N1CCCCC1 (centres undefined) | 18.7 µM (inactive) | 22 µM (inactive) | 17.4 µM (inactive) | 15.2 µM (inactive) | 17.4 µM (inactive) | 14.6 µM (inactive) | 20.6 µM (inactive) | 16.6 µM (inactive) | 17.7 µM (inactive) | 20.7 µM (inactive) | – | 23.3 µM (inactive) | 18 µM (inactive) | 19.1 µM (inactive) | 33.3 µM (inactive) | 16.1 µM (inactive) | 17.6 µM (inactive) | 17.6 µM (inactive) | – | 18.1 µM (inactive) |
| CC#CC(O)(C(=O)OC1CCCN(C)C1)C1=CC=CCC1 (centres undefined) | > 100 µM (inactive) | > 100 µM (inactive) | > 100 µM (inactive) | > 100 µM (inactive) | > 100 µM (inactive) | > 100 µM (inactive) | > 100 µM (inactive) | > 100 µM (inactive) | > 100 µM (inactive) | > 100 µM (inactive) | > 100 µM (inactive) | – | > 100 µM (inactive) | > 100 µM (inactive) | > 100 µM (inactive) | > 100 µM (inactive) | > 100 µM (inactive) | > 100 µM (inactive) | > 100 µM (inactive) | > 100 µM (inactive) |
| N#Cc1[nH]c(=O)n(-c2ccc([N+](=O)[O-])cc2)c1N | > 10 µM (inactive) | 7.64 µM (inactive) | > 10 µM (inactive) | > 10 µM (inactive) | > 10 µM (inactive) | > 10 µM (inactive) | > 10 µM (inactive) | > 10 µM (inactive) | > 10 µM (inactive) | > 10 µM (inactive) | > 10 µM (inactive) | – | > 10 µM (inactive) | > 10 µM (inactive) | – | > 10 µM (inactive) | > 10 µM (inactive) | > 10 µM (inactive) | > 10 µM (inactive) | > 10 µM (inactive) |
| NC(CCSCC(F)(F)F)C(=O)O (centres undefined) | > 100 µM (inactive) | > 100 µM (inactive) | > 100 µM (inactive) | > 100 µM (inactive) | – | > 100 µM (inactive) | > 100 µM (inactive) | > 100 µM (inactive) | > 100 µM (inactive) | > 100 µM (inactive) | > 100 µM (inactive) | – | > 100 µM (inactive) | > 100 µM (inactive) | – | > 100 µM (inactive) | > 100 µM (inactive) | > 100 µM (inactive) | – | > 100 µM (inactive) |
| COc1ccc(S(=O)(=O)Nc2ccc(-c3csc(N4C(=O)/C(=C/c5ccccc5)N=C4c4ccccc4)n3)cc2)cc1Cl | 36.4 µM (inactive) | 31.3 µM (inactive) | 29.2 µM (inactive) | 38.6 µM (inactive) | 25.4 µM (inactive) | 41.6 µM (inactive) | 24.4 µM (inactive) | 27.2 µM (inactive) | 34.8 µM (inactive) | 30.9 µM (inactive) | 24.8 µM (inactive) | – | 46.5 µM (inactive) | 31.4 µM (inactive) | 36.8 µM (inactive) | 47.4 µM (inactive) | 43.7 µM (inactive) | 38.3 µM (inactive) | 38.7 µM (inactive) | 57.4 µM (inactive) |
| CNC(=O)c1nn[nH]c1O | > 100 µM (inactive) | > 10 µM (inactive) | 74.1 µM (inactive) | > 100 µM (inactive) | > 100 µM (inactive) | – | > 100 µM (inactive) | – | > 100 µM (inactive) | > 100 µM (inactive) | > 100 µM (inactive) | – | > 100 µM (inactive) | > 100 µM (inactive) | > 100 µM (inactive) | – | > 100 µM (inactive) | > 100 µM (inactive) | > 100 µM (inactive) | > 100 µM (inactive) |
| O=C1CC(c2ccc([N+](=O)[O-])cc2)C2(C(=O)NC(=S)NC2=O)C(c2ccc([N+](=O)[O-])cc2)C1 (centres undefined) | 23.8 µM (inactive) | 21.8 µM (inactive) | > 100 µM (inactive) | 16.3 µM (inactive) | 30.5 µM (inactive) | 33.7 µM (inactive) | – | 45.7 µM (inactive) | 20.1 µM (inactive) | 18.1 µM (inactive) | 19 µM (inactive) | 17 µM (inactive) | 27.7 µM (inactive) | 21.4 µM (inactive) | 21.4 µM (inactive) | 16.3 µM (inactive) | 29.7 µM (inactive) | 12.2 µM (inactive) | 31.4 µM (inactive) | 40.7 µM (inactive) |
| Cc1cnc2c(c1C)C(=O)c1ccccc1C2=O | 2.47 µM (inactive) | 18.8 µM (inactive) | 32.9 µM (inactive) | 32.6 µM (inactive) | 26 µM (inactive) | 29.2 µM (inactive) | 58.1 µM (inactive) | 18.8 µM (inactive) | 36.4 µM (inactive) | 49.4 µM (inactive) | 69 µM (inactive) | > 100 µM (inactive) | 65.2 µM (inactive) | 20.1 µM (inactive) | 39.1 µM (inactive) | > 100 µM (inactive) | 27.5 µM (inactive) | – | – | > 100 µM (inactive) |
| CC1CCC23COC(=O)C2C(O)CCC3C1(C)CC(O)c1ccoc1 (centres undefined) | > 100 µM (inactive) | > 100 µM (inactive) | 41.3 µM (inactive) | > 100 µM (inactive) | – | > 100 µM (inactive) | > 100 µM (inactive) | > 100 µM (inactive) | > 100 µM (inactive) | > 100 µM (inactive) | > 100 µM (inactive) | – | > 100 µM (inactive) | > 100 µM (inactive) | – | > 100 µM (inactive) | > 100 µM (inactive) | > 100 µM (inactive) | – | > 100 µM (inactive) |
| CC1=CC2=C(C(N)=O)C(=O)OC2(C)C(c2ccccc2)C1 (centres undefined) | > 100 µM (inactive) | > 100 µM (inactive) | 3.03 µM (inactive) | > 100 µM (inactive) | > 100 µM (inactive) | > 100 µM (inactive) | – | > 100 µM (inactive) | > 100 µM (inactive) | > 100 µM (inactive) | > 100 µM (inactive) | > 100 µM (inactive) | > 100 µM (inactive) | > 100 µM (inactive) | > 100 µM (inactive) | > 100 µM (inactive) | > 100 µM (inactive) | > 100 µM (inactive) | > 100 µM (inactive) | > 100 µM (inactive) |

From ChEMBL document CHEMBL1201862, “PubChem BioAssay data set” (2004)
